Measured values published in US5534416A, “Fluorescent viability assay using cyclic-substituted unsymmetrical cyanine dyes” (Molecular Probes, Inc., priority 1993, dated 1996).

Experiments:
calf thymus DNA = details: Table 5; bound to excess calf thymus DNA (50 bp/dye); cited from earlier work
nucleic acids = assay: Excitation/emission maxima of dyes complexed with nucleic acids; format: physicochemical; set-up: key: wavelength in nm; details: Table 2; dye complexed with nucleic acids
Description: Dye I is lightly colored and is virtually non-fluorescent when diluted in aqueous solution according to the method of the invention. Dye I is highly membrane-permeant and labels all cells, whether live or dead. When Dye I binds with intracellular nucleic acid polymers such as DNA and RNA, the resultant dye-nucleic acid complex becomes extremely fluorescent upon illumination. The quantum yield of the preferred Dye I/DNA complex is greater than 0.02, typically greater than 0.1, preferably greater than 0.2, and more preferably greater than 0.3. Typically, Dye I combines with intracellular nucleic acids to give a green or red fluorescence. When excited at a wavelength between about 300 nm and about 500 nm, the dyes complexed with nucleic acids have an emission maximum between about 500 and about 610 nm (see Table 2). Preferably, Dye I complexed with nucleic acids has an emission maximum of between about 500 nm and about 535 nm, resulting in a true green fluorescent signal in cells of the sample where Dye I is present alone.

DNA = assay: Quantum yield of dye on DNA versus fluorescein; format: physicochemical; details: Table 2; Tris buffered saline pH 10; fluorescein assumed 0.92
Description: ^ Quantum yield (QY) of dye on DNA (standard solution in Tris buffere
saline adjusted to pH 10) in comparison with fluorescein, which is assume
to have a quantum yield of 0.92 under the test conditions.
Factors such as degree of fluorescence enhancement with nucleic acid binding, self quenching, molar extinction coefficient, membrane permeability, intracellular partitioning, nucleic acid binding affinity, and quantum yield contribute to the overall fluorescence of nucleic acid stains in cells. Enhanced cell fluorescence obtained with Dye I is related to unexpected properties other than quantum yield alone. Quantum yield is determined as described above (foot note to Table 2). Normalized quantum yield is determined to illustrate the fold-change in quantum yield of Dye I compared with thiazole orange, a related cell-permeant dye. The normalized fluorescence values represent the quantum yield of each dye divided by the quantum yield of thiazole orange. Fluorescence per cell is also scaled to thiazole orange values for both E. coli and S. aureus to allow direct comparison between relative (normalized) quantum yield and relative (normalized) fluorescence/cell.

Row | Compound | EM max (nucleic acids) | EX max (nucleic acids) | QY (DNA) (DNA) | EM max (calf thymus DNA) | EX max (calf thymus DNA)
1 | CC[n+]1c(-c2ccccc2)c2cc(N=[N+]=[N-])ccc2c2ccc(N)cc21 [Ethidium monoazide] | – | – | – | 615 nm | 465 nm
2 | C[n+]1c(C=C2C=CN(CCC[N+](C)(C)C)c3ccccc32)sc2ccccc21 [TO-PRO-1] | – | – | – | 531 nm | 515 nm
3 | C[n+]1c(C=C2C=CN(CCC[N+](C)(C)CCC[N+](C)(C)CCCN3C=CC(=Cc4oc5ccccc5[n+]4C)C=C3)C=C2)oc2ccccc21 [POPO-1] | – | – | – | 456 nm | 434 nm
4 | C[n+]1c(C=CC=C2C=CN(CCC[N+](C)(C)CCC[N+](C)(C)CCCN3C=CC(=CC=Cc4oc5ccccc5[n+]4C)c4ccccc43)c3ccccc32)oc2ccccc21 [YOYO-3] | – | – | – | 631 nm | 612 nm
5 | C[n+]1c(C=CC=C2C=CN(CCC[N+](C)(C)C)c3ccccc32)oc2ccccc21 [YO-PRO-3] | – | – | – | 631 nm | 612 nm
6 | C[n+]1c(C=C2C=CN(CCC[N+](C)(C)CCC[N+](C)(C)CCCN3C=CC(=Cc4sc5ccccc5[n+]4C)C=C3)C=C2)sc2ccccc21 [BOBO-1] | – | – | – | 481 nm | 462 nm
7 | C[n+]1c(C=CC=C2C=CN(CCC[N+](C)(C)C)C=C2)sc2ccccc21 [BO-PRO-3] | – | – | – | 599 nm | 575 nm
8 | CCN1C(=Cc2cc(Cl)[n+](-c3ccccc3)c3ccccc23)Sc2ccccc21 [compound 200] | 759 | 739 | – | – | –
9 | CN1C(=Cc2cc[n+](C3CCCCC3)c3ccccc23)Sc2ccccc21 [compound 542] | 527 | 510 | – | – | –
10 | C[n+]1c(C=CC=C2C=CN(CCC[N+](C)(C)C)c3ccccc32)sc2ccccc21 [TO-PRO-3] | – | – | – | 661 nm | 642 nm
11 | C[n+]1c(C=C2C=CN(CCC[N+](C)(C)C)c3ccccc32)oc2ccccc21 [YO-PRO-1] | – | – | – | 509 nm | 491 nm
12 | C[n+]1c(C=CC=C2C=CN(CCC[N+](C)(C)CCC[N+](C)(C)CCCN3C=CC(=CC=Cc4sc5ccccc5[n+]4C)C=C3)C=C2)sc2ccccc21 [BOBO-3] | – | – | – | 602 nm | 570 nm
13 | CCCCC1=CC(=CC=Cc2sc3ccccc3[n+]2C)c2ccccc2N1c1ccccc1 [compound 621] | 656 | 635 | – | – | –
14 | C[n+]1c(C=C2C=C(Cl)N(C3CCCCC3)c3ccccc32)sc2ccccc21 [780 (Cl)] | 536 | 513 | 0.09 | – | –
15 | C[n+]1c(C=C2C=CN(CCC[N+](C)(C)CCC[N+](C)(C)CCCN3C=CC(=Cc4sc5ccccc5[n+]4C)c4ccccc43)c3ccccc32)sc2ccccc21 [TOTO-1] | – | – | – | 533 nm | 514 nm
16 | CC[n+]1c(-c2ccccc2)c2cc(N)ccc2c2ccc(N)cc21 [Ethidium bromide] | – | – | – | 595 nm | 510 nm
17 | COc1ccc(N2C(Cl)=CC(=Cc3sc4ccccc4[n+]3C)c3ccccc32)cc1 [compound 582] | 533 | 516 | – | – | –
18 | C[n+]1c(C=C2C=CN(CCC[N+](C)(C)C)C=C2)sc2ccccc21 [BO-PRO-1] | – | – | – | 481 nm | 462 nm
19 | CSC1=CC(=Cc2sc3ccccc3[n+]2C)c2ccccc2N1C1CCCCC1 [780 (S)] | – | – | 0.31 | – | –
20 | C[n+]1c(C=C2C=CN(CCC[N+](C)(C)C)C=C2)oc2ccccc21 [PO-PRO-1] | – | – | – | 455 nm | 435 nm
21 | C[n+]1c(C=C2C=CN(CCC[N+](C)(C)CCC[N+](C)(C)CCCN3C=CC(=Cc4oc5ccccc5[n+]4C)c4ccccc43)c3ccccc32)oc2ccccc21 [YOYO-1] | – | – | – | 509 nm | 491 nm
22 | C[n+]1c(C=CC=C2C=CN(CCC[N+](C)(C)CCC[N+](C)(C)CCCN3C=CC(=CC=Cc4oc5ccccc5[n+]4C)C=C3)C=C2)oc2ccccc21 [POPO-3] | – | – | – | 570 nm | 534 nm
23 | CN1C(=Cc2cc[n+](C3CCCCC3)c3ccccc23)Sc2ccccc21 [compound 73] | 525 | 508 | 0.31 | – | –
24 | C[n+]1c(C=C2C=C(c3ccccc3)N(c3ccccc3)c3ccccc32)sc2ccccc21 [compound 630] | 544 | 517 | 0.19 | – | –
25 | C[n+]1c(C=C2C=Cc3ccccc3N2c2ccccc2)sc2ccccc21 [compound 64] | 523 | 450 | – | – | –
26 | CC[N+](C)(CC)CCC[n+]1c(-c2ccccc2)c2cc(N)ccc2c2ccc(N)cc21 [Propidium iodide] | – | – | – | 617 nm | 536 nm
27 | COc1ccccc1N1C=CC(=Cc2sc3ccccc3[n+]2C)C=C1Cl [compound 616] | 510 | 471 | – | – | –
28 | CCCCc1cc(C=C2Sc3ccccc3N2C)c2ccccc2[n+]1-c1cccs1 [compound 71] | 526 | 508 | 0.31 | – | –
29 | C[n+]1c(C=C2C=CN(c3ccccc3)C(Cl)=C2)sc2ccccc21 [compound 578] | 504 | 470 | – | – | –
30 | CN1C=CC(=Cc2sc3ccccc3[n+]2C)c2cccc(-c3ccccc3)c21 [compound 72] | 535 | 515 | 0.026 | – | –

Now from value to compound, other results behind:

Row | EM max (nucleic acids) | EX max (nucleic acids) | QY (DNA) (DNA) | Compound | EM max (calf thymus DNA) | EX max (calf thymus DNA)
31 | 611 | 586 | – | COC1=CC(=CC=Cc2oc3ccccc3[n+]2C)c2ccccc2N1c1ccccc1 [compound 672] | – | –
32 | 523 | 502 | 0.43 | CN1CCN(C2=CC(=Cc3sc4ccccc4[n+]3C)c3ccccc3N2c2ccccc2)CC1 [compound 856] | – | –
33 | 507 | 486 | – | C[n+]1c(C=C2C=C(F)N(c3ccccc3)c3ccccc32)sc2ccccc21 [compound 834] | – | –
34 | 510 | 485 | 0.68 | CCN(CC)C1=CC(=Cc2sc3ccccc3[n+]2C)c2ccc(OC)cc2N1c1ccccc1 [compound 760] | – | –
35 | 555 | 516 | – | C[n+]1c(C=C2C=C(Sc3ccccn3)N(c3ccccc3)c3ccccc32)sc2ccccc21 [compound 853] | – | –
36 | 518 | 494 | 0.51 | CN1C(=Cc2cc(N3CCOCC3)[n+](C)c3ccccc23)Sc2ccccc21 [compound 752] | – | –
37 | 524 | 506 | 0.50 | C[n+]1c(C=C2C=C(C3CCCCC3)N(c3ccccc3)c3ccccc32)sc2ccccc21 [compound 765] | – | –
38 | 611 | 570 | – | CCCCC1=CC(=CC=Cc2sc3ccccc3[n+]2C)C=CN1c1ccccc1 [compound 742] | – | –
39 | 508 | 489 | 0.12 | C[n+]1c(C=C2C=C(Cl)N(c3ccccc3)c3ccccc32)oc2ccccc21 [compound 633] | – | –
40 | 518 | 495 | – | C[n+]1c(C=C2C=C(Oc3ccccc3)N(c3ccccc3)c3ccccc32)sc2ccccc21 [compound 835] | – | –
41 | 520 | 483 | – | C[n+]1c(C=C2C=C(OS(=O)(=O)C(F)(F)F)N(c3ccccc3)c3ccccc32)sc2ccccc21 [compound 854] | – | –
42 | 533 | 517 | – | C[n+]1c(C=C2C=C(Br)N(c3ccccc3)c3ccccc32)sc2ccccc21 [compound 774] | – | –
43 | 516 | 471 | – | C[n+]1c(C=C2C=CN(c3ccccc3)C=C2)sc2ccccc21 [compound 640] | – | –
44 | 508 | 486 | 0.58 | CC(C)OC1=CC(=Cc2sc3ccccc3[n+]2C)c2ccccc2N1c1ccccc1 [compound 764] | – | –
45 | 523 | 505 | 0.52 | CN1C(C2CCCCC2)=CC(=Cc2sc3ccccc3[n+]2C)c2ccccc21 [compound 6104] | – | –
46 | 526 | 503 | 0.35 | CSC1=CC(=Cc2sc3ccccc3[n+]2C)c2ccccc2N1c1ccccc1 [compound 641] | – | –
47 | – | – | 0.65 | CCCN(CCC)C1=CC(=Cc2sc3ccccc3[n+]2C)c2ccccc2N1c1ccccc1 [compound 776] | – | –
48 | 548 | 513 | 0.20 | CN1C(c2ccccc2)=CC(=Cc2sc3ccccc3[n+]2C)c2ccccc21 [compound 639] | – | –
49 | 507 | 487 | 0.52 | CCOC1=CC(=Cc2sc3ccccc3[n+]2C)c2ccccc2N1c1ccccc1 [compound 720] | – | –
50 | 533 | 517 | – | CN1C(=Cc2cc(Cl)[n+](-c3cccs3)c3ccccc23)Sc2ccccc21 [compound 830] | – | –
51 | 530 | 511 | 0.18 | COc1ccc2c(c1)N(c1ccccc1)C(Cl)=CC2=Cc1sc2ccccc2[n+]1C [compound 5103] | – | –
